Results as given in ChEMBL document CHEMBL2417377, “Hit-to-lead optimization and kinase selectivity of imidazo[1,2-a]quinoxalin-4-amine derived JNK1 inhibitors” (Bioorg Med Chem Lett, 2013).

Experiments:
[1] = target: T1, Mitogen-activated protein kinase kinase kinase 3 (Homo sapiens) (UniProt Q99759); assay: Inhibition of MAP3K3 in human PC3 cell lysates at 10 uM using desthiobiotin-tagged ATP probe AX9989 followed by trypsinization by LC/MS analysis; details: PC-3
T1 sequence (whole entry): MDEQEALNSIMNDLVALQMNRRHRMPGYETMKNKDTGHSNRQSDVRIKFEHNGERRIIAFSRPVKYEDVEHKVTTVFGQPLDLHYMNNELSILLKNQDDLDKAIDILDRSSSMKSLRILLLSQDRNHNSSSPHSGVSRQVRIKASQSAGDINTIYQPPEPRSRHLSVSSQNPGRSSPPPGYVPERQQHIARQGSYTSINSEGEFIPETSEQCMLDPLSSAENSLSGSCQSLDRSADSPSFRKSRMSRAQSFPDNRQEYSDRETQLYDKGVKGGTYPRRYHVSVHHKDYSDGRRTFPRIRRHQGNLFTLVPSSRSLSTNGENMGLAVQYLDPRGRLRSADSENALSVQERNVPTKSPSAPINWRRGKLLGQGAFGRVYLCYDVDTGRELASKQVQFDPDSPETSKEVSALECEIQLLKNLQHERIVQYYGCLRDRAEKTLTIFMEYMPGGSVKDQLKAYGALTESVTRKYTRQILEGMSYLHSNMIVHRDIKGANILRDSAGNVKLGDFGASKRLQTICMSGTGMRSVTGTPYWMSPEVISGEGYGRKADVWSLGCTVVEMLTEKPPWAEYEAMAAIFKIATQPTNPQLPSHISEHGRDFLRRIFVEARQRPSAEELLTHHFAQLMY

[2] = target: Serine/threonine-protein kinase 10 (Homo sapiens) (UniProt O94804); assay: Inhibition of LOK in human PC3 cell lysates at 10 uM using desthiobiotin-tagged ATP probe AX9989 followed by trypsinization by LC/MS analysis; details: PC-3
[3] = target: Mitogen-activated protein kinase 3 (Homo sapiens) (UniProt P27361); assay: Inhibition of Erk1 in human PC3 cell lysates at 10 uM using desthiobiotin-tagged ATP probe AX9989 followed by trypsinization by LC/MS analysis; details: PC-3
[4] = target: T2, Peripheral plasma membrane protein CASK (Homo sapiens) (UniProt O14936); assay: Inhibition of CASK in human PC3 cell lysates at 10 uM using desthiobiotin-tagged ATP probe AX9989 followed by trypsinization by LC/MS analysis; details: PC-3
T2 sequence (whole entry): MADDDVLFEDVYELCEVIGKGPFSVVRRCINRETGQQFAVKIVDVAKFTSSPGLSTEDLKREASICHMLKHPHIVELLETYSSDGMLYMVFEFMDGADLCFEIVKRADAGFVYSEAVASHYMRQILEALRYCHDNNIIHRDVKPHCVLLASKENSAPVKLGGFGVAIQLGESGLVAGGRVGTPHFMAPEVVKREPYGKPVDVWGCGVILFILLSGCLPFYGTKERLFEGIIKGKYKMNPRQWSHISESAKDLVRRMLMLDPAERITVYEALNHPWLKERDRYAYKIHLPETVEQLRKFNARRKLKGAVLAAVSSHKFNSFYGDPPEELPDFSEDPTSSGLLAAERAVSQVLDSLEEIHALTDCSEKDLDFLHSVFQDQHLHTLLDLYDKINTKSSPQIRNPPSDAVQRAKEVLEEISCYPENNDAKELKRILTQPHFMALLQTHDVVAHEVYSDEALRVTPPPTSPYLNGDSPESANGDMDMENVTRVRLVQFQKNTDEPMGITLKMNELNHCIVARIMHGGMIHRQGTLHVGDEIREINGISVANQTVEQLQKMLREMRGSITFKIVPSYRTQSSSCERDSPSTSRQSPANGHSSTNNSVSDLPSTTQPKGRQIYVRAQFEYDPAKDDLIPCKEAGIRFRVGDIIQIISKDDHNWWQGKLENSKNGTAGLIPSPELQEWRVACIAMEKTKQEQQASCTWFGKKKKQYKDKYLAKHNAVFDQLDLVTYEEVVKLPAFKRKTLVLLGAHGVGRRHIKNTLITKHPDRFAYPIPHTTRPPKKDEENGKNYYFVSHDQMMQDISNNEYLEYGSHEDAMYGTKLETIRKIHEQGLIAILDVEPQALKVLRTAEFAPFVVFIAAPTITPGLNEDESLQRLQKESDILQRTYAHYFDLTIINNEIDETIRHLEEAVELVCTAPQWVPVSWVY

PC-3 = assay: Inhibition of ZC1/HGK/ZC2/TNIK/ZC3/MINK in human PC3 cell lysates at 10 uM using desthiobiotin-tagged ATP probe AX9989 followed by trypsinization by LC/MS analysis; type: cell-free
[5] = target: T3, Serine/threonine-protein kinase tousled-like 1 (Homo sapiens) (UniProt Q9UKI8); assay: Inhibition of TLK1 in human PC3 cell lysates at 10 uM using desthiobiotin-tagged ATP probe AX9989 followed by trypsinization by LC/MS analysis; details: PC-3
T3 sequence (whole entry): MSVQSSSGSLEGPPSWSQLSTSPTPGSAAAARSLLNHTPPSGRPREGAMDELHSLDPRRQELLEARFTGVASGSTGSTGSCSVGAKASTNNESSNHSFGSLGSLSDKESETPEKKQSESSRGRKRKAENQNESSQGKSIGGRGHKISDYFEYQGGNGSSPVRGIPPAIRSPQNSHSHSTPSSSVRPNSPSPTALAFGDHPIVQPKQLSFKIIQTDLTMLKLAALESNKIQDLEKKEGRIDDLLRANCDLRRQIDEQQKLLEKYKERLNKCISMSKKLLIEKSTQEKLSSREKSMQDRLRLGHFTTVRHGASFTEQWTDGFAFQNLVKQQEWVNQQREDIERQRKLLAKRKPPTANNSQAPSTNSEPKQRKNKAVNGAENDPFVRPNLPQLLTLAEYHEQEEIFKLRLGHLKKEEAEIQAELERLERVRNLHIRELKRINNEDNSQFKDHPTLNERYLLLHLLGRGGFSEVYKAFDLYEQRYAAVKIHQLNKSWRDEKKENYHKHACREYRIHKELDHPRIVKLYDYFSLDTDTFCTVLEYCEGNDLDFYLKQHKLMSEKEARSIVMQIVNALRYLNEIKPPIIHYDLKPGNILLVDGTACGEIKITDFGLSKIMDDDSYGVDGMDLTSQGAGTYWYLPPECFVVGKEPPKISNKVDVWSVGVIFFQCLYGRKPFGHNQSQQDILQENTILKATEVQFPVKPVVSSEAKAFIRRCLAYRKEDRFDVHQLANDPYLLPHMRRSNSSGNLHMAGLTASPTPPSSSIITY

[6] = target: Serine/threonine-protein kinase PRP4 homolog (Homo sapiens) (UniProt Q13523); assay: Inhibition of PRP4 in human PC3 cell lysates at 10 uM using desthiobiotin-tagged ATP probe AX9989 followed by trypsinization by LC/MS analysis; details: PC-3
[7] = target: Serine/threonine-protein kinase 25 (Homo sapiens) (UniProt O00506); assay: Inhibition of YSK1 in human PC3 cell lysates at 10 uM using desthiobiotin-tagged ATP probe AX9989 followed by trypsinization by LC/MS analysis; details: PC-3
Chain of Serine/threonine-protein kinase 25 (Homo sapiens) (O00506 whole entry, looked up): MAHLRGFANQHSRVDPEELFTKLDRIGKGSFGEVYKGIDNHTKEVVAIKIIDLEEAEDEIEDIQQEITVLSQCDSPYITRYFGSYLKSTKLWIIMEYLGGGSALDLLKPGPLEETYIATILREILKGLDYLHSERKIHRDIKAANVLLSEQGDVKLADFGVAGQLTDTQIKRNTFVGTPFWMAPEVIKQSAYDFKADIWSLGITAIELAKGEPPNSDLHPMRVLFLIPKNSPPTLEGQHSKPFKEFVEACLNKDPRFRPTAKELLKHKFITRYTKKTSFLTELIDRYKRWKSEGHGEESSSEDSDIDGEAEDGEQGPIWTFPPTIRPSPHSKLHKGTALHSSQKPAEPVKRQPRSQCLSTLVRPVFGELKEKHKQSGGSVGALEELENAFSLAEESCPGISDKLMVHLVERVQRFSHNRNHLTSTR

Chain of Serine/threonine-protein kinase 10 (Homo sapiens) (O94804 whole entry, looked up): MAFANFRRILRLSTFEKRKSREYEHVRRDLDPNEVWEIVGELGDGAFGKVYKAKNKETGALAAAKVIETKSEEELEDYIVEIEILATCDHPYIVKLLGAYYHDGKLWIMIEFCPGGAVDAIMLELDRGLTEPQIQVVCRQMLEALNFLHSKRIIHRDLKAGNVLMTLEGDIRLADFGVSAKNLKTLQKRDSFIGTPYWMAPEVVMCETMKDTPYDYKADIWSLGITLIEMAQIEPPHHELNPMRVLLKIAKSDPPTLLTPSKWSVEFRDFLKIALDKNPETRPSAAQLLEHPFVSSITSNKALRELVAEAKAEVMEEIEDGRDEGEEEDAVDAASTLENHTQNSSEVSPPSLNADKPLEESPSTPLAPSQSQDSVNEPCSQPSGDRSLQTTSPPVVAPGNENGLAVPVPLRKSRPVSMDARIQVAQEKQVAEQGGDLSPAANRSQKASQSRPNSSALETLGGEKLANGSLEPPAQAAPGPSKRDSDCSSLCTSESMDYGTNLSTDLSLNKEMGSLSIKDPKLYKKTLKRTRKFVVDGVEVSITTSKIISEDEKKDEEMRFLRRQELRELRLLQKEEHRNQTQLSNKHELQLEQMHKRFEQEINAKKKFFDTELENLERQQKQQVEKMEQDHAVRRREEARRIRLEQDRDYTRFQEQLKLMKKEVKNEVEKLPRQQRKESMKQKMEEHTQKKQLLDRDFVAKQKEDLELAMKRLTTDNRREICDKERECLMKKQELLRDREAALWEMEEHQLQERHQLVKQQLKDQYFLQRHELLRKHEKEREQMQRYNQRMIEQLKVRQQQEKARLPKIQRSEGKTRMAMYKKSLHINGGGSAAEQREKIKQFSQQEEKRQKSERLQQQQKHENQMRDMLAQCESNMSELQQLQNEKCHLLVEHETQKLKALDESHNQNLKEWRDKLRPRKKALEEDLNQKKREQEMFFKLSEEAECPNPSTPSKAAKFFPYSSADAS
Chain of Mitogen-activated protein kinase 3 (Homo sapiens) (P27361 whole entry): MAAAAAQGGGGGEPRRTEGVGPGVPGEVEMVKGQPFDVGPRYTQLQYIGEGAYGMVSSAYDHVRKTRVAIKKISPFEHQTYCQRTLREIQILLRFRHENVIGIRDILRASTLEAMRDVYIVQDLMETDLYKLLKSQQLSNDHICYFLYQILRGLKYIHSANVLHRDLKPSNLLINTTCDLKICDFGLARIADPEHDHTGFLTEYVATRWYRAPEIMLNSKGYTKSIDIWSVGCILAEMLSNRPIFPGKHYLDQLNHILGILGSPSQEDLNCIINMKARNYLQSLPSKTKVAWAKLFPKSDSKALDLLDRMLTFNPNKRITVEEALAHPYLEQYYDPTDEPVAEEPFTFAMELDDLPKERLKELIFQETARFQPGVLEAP
Chain of Serine/threonine-protein kinase PRP4 homolog (Homo sapiens) (Q13523 whole entry): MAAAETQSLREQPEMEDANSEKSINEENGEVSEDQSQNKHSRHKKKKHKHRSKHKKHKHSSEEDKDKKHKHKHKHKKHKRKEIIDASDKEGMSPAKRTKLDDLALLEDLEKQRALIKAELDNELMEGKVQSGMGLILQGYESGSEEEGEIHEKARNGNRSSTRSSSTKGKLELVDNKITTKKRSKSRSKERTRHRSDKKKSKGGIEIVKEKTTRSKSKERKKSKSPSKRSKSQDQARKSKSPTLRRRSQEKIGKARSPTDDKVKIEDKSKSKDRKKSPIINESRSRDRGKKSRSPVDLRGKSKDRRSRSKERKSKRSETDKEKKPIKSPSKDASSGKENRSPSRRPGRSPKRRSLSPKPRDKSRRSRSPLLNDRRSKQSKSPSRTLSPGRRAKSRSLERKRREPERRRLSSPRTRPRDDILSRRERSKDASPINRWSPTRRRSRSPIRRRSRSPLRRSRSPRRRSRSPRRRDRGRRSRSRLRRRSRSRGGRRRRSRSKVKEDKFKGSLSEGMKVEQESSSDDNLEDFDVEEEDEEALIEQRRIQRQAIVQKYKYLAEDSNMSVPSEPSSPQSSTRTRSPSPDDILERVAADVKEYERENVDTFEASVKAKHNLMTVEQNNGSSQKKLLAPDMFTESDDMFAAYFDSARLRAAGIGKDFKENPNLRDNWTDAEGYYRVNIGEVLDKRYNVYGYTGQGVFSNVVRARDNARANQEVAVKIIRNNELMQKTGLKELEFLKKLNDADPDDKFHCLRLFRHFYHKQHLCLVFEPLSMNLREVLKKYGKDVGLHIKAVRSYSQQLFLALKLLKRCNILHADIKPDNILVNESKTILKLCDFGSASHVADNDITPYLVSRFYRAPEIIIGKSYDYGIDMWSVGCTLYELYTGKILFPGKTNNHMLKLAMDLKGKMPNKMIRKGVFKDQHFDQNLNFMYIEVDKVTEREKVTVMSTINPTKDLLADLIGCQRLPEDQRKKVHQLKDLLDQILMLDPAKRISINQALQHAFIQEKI

| inhibition [1] | inhibition [2] | inhibition [3] | inhibition [4] | inhibition [5] | inhibition [6] | inhibition [7] | SMILES | inhibition (PC-3) |
| --- | --- | --- | --- | --- | --- | --- | --- | --- |
| < 35% | < 35% | < 35% | < 35% | < 35% | < 35% | < 35% | O=C(N[C@H](CO)c1ccccc1)c1ccc2nc(N[C@H]3CC[C@H](O)CC3)c3nccn3c2c1 | < 35% |
| < 35% | < 35% | < 35% | < 35% | < 35% | < 35% | < 35% | CC(C)(NC(=O)c1ccc2nc(N[C@H]3CC[C@H](O)CC3)c3nccn3c2c1)c1ccccc1 | < 35% |
| < 35% | < 35% | < 35% | < 35% | < 35% | < 35% | < 35% | CCC[C@@H](NC(=O)c1ccc2nc(N[C@H]3CC[C@H](O)CC3)c3nccn3c2c1)c1ccccc1 | < 35% |
| < 35% | < 35% | < 35% | < 35% | < 35% | < 35% | < 35% | C[C@@H](NC(=O)c1ccc2nc(N[C@H]3CC[C@H](O)CC3)c3nccn3c2c1)c1ccccc1 | < 35% |
| < 35% | < 35% | < 35% | < 35% | < 35% | < 35% | < 35% | CC[C@@H](NC(=O)c1ccc2nc(N[C@H]3CC[C@H](O)CC3)c3nccn3c2c1)c1ccccc1 | < 35% |
| < 35% | < 35% | < 35% | < 35% | < 35% | < 35% | < 35% | C[C@H](NC(=O)c1ccc2nc(N[C@H]3CC[C@H](O)CC3)c3nccn3c2c1)c1ccccc1 | < 35% |

The remaining lines, values behind:

| SMILES | inhibition [1] | inhibition [2] | inhibition [3] | inhibition [4] | inhibition [5] | inhibition [6] | inhibition [7] | inhibition (PC-3) |
| --- | --- | --- | --- | --- | --- | --- | --- | --- |
| NC(=O)c1ccc2nc(N[C@H]3CC[C@H](O)CC3)c3nccn3c2c1 | < 35% | < 35% | < 35% | < 35% | < 35% | < 35% | < 35% | 37% |
| O=C(NC1(c2ccccc2)CC1)c1ccc2nc(N[C@H]3CC[C@H](O)CC3)c3nccn3c2c1 | < 35% | < 35% | < 35% | < 35% | < 35% | < 35% | < 35% | < 35% |
| O=C(NC1(Cc2ccc(F)cc2)CC1)c1ccc2nc(N[C@H]3CC[C@H](O)CC3)c3nccn3c2c1 | < 35% | < 35% | < 35% | < 35% | < 35% | < 35% | < 35% | < 35% |
| O=C(NC1(c2ccccc2)CCC1)c1ccc2nc(N[C@H]3CC[C@H](O)CC3)c3nccn3c2c1 | < 35% | < 35% | < 35% | < 35% | < 35% | < 35% | < 35% | < 35% |
| O=C(NC1(c2ccc(F)cc2)CC1)c1ccc2nc(N[C@H]3CC[C@H](O)CC3)c3nccn3c2c1 | < 35% | < 35% | < 35% | < 35% | < 35% | < 35% | < 35% | < 35% |
| O=C(O)c1ccc2nc(N[C@H]3CC[C@H](O)CC3)c3nccn3c2c1 | < 35% | < 35% | < 35% | < 35% | < 35% | < 35% | < 35% | < 35% |
